Laboratory results: paper PMC11178787, “Development of a natural product optimization strategy for inhibitors against MraY, a promising antibacterial target” (Nature Communications, 2024)
Values after ≈ are worked out from the molar mass of the structure shown. Like-named read-outs stand apart in the source and are kept apart here.

Experiments:
MraYSA (S. aureus MraY) = MraYSA (S. aureus MraY) (Staphylococcus aureus, UniProt Q2FZ93); assay: fluorescence assay of dansylated lipid I formation; type: biochemical
in vitro = assay: in vitro; design: WST-8 cell viability assay in HepG2 cells; settings: human, hepg2 cells; read-out: IC50
Protocol: Cells were regularly passed to maintain exponential growth. HepG2 cells were sowed by 1.0 × 10^4 cells for each well in 96-well plate and cultured at 37 °C under 5% CO2 in air for 24 h. The cells were treated with a solution of test compounds in DMSO at various concentration and incubated at 37 °C under 5% CO2 in air for 24 h. After that, the WST-8 (Dojindo) cell proliferation assay was used. Cell viability was indicated as a percentage of the negative control (cells treated with DMSO only) and that value was fixed at 100%.

[1] = tested on: T1, E. faecalis(VRE) ATCC 51299; assay: microbe, parasite or virus in culture; design: CLSI broth microdilution MIC in MHB-II, single trial; settings: Enterococcus faecalis, 18 h
T1 construct: ATCC 51299 (VRE)
Protocol: (§1) MICs were determined by a microdilution broth method as recommended by the CLSI with MHB-II. For MICs of stable analogues, a 2-fold dilution of each compound was prepared in DMSO at 100-fold of the final concentration. The strains were inoculated with 5 × 10^5 cfu/mL in 96-well plates (each 100 μL/well), and 1 μL of DMSO solutions of the samples were added (contained less than 1% DMSO). The plates were incubated at 37 °C for 18 h and then MICs were determined. MICs of stable analogues in Table 1 were the highest value in three trials. MICs in Supplementary Table 1 were determined in one trial.

E. faecium ATCC 35667 = tested on: T2, E. faecium ATCC 35667; assay: microbe, parasite or virus in culture; design: CLSI broth microdilution MIC in MHB-II, single trial; settings: Enterococcus faecium, ATCC35667, 18 h
T2 construct: ATCC 35667
Protocol: as §1

[2] = tested on: T3, E. faecium(VRE) ATCC 51559; assay: microbe, parasite or virus in culture; design: CLSI broth microdilution MIC in MHB-II, single trial; settings: Enterococcus faecium, 18 h
T3 construct: ATCC 51559 (VRE)
Protocol: as §1

[3] = tested on: T4, E. faecium(VRE) ATCC 51858; assay: microbe, parasite or virus in culture; design: CLSI broth microdilution MIC in MHB-II, single trial; settings: Enterococcus faecium, 18 h
T4 construct: ATCC 51858 (VRE)
Protocol: as §1

S. aureus ATCC 29213 = tested on: T5, S. aureus ATCC 29213; assay: microbe, parasite or virus in culture; design: CLSI broth microdilution MIC in MHB-II, single trial; settings: Staphylococcus aureus, ATCC29213, 18 h
T5 construct: ATCC 29213
Protocol: as §1

[4] = tested on: T6, Staphylococcus aureus MRSA JE2; assay: microbe, parasite or virus in culture; design: CLSI broth microdilution MIC in MHB-II, single trial; settings: 18 h
T6 construct: JE2 (MRSA)
Protocol: as §1

Enterococcus faecalis 21 = tested on: T7, Enterococcus faecalis 21; assay: microbe, parasite or virus in culture; design: CLSI broth microdilution MIC in MHB-II; settings: Enterococcus faecalis, 21, 18 h, read-out: MIC
T7 construct: 21
Protocol: as §1

Enterococcus faecalis 22 = tested on: T8, Enterococcus faecalis 22; assay: microbe, parasite or virus in culture; design: CLSI broth microdilution MIC in MHB-II; settings: Enterococcus faecalis, 22, 18 h, read-out: MIC
T8 construct: 22
Protocol: as §1

Enterococcus faecalis 24 = tested on: T9, Enterococcus faecalis 24; assay: microbe, parasite or virus in culture; design: CLSI broth microdilution MIC in MHB-II; settings: Enterococcus faecalis, 24, 18 h, read-out: MIC
T9 construct: 24
Protocol: as §1

Enterococcus faecalis 25 = tested on: T10, Enterococcus faecalis 25; assay: microbe, parasite or virus in culture; design: CLSI broth microdilution MIC in MHB-II; settings: Enterococcus faecalis, 25, 18 h, read-out: MIC
T10 construct: 25
Protocol: as §1

Enterococcus faecalis 27 = tested on: T11, Enterococcus faecalis 27; assay: microbe, parasite or virus in culture; design: CLSI broth microdilution MIC in MHB-II; settings: Enterococcus faecalis, 27, 18 h, read-out: MIC
T11 construct: 27
Protocol: as §1

Enterococcus faecium 10 = tested on: T12, Enterococcus faecium 10; assay: microbe, parasite or virus in culture; design: CLSI broth microdilution MIC in MHB-II; settings: Enterococcus faecium, 10, 18 h, read-out: MIC
T12 construct: 10
Protocol: as §1

Enterococcus faecium 1 = assay: microbe, parasite or virus in culture; design: CLSI broth microdilution MIC in MHB-II; settings: Enterococcus faecium, 1, 18 h, read-out: MIC
Protocol: as §1

Enterococcus faecium 9 = assay: microbe, parasite or virus in culture; design: CLSI broth microdilution MIC in MHB-II; settings: Enterococcus faecium, 9, 18 h, read-out: MIC
Protocol: as §1

[5] = tested on: T13, Staphylococcus aureus #1958; assay: microbe, parasite or virus in culture; design: CLSI broth microdilution MIC in MHB-II; settings: Staphylococcus aureus, 18 h, read-out: MIC
T13 construct: #1958
Protocol: as §1

[6] = tested on: T14, Staphylococcus aureus #2071; assay: microbe, parasite or virus in culture; design: CLSI broth microdilution MIC in MHB-II; settings: Staphylococcus aureus, 18 h, read-out: MIC
T14 construct: #2071
Protocol: as §1

[7] = tested on: T15, Staphylococcus aureus #2110; assay: microbe, parasite or virus in culture; design: CLSI broth microdilution MIC in MHB-II; settings: Staphylococcus aureus, 18 h, read-out: MIC
T15 construct: #2110
Protocol: as §1

[8] = tested on: T16, Staphylococcus aureus #2310; assay: microbe, parasite or virus in culture; design: CLSI broth microdilution MIC in MHB-II; settings: Staphylococcus aureus, 18 h, read-out: MIC
T16 construct: #2310
Protocol: as §1

[9] = tested on: T17, Staphylococcus aureus #2933; assay: microbe, parasite or virus in culture; design: CLSI broth microdilution MIC in MHB-II; settings: Staphylococcus aureus, 18 h, read-out: MIC
T17 construct: #2933
Protocol: as §1

[10] = tested on: T18, Staphylococcus aureus #2934; assay: microbe, parasite or virus in culture; design: CLSI broth microdilution MIC in MHB-II; settings: Staphylococcus aureus, 18 h, read-out: MIC
T18 construct: #2934
Protocol: as §1

[11] = tested on: T19, Staphylococcus aureus #2935; assay: microbe, parasite or virus in culture; design: CLSI broth microdilution MIC in MHB-II; settings: Staphylococcus aureus, 18 h, read-out: MIC
T19 construct: #2935
Protocol: as §1

MraYSA (S. aureus MraY), sequence (Q2FZ93 whole entry): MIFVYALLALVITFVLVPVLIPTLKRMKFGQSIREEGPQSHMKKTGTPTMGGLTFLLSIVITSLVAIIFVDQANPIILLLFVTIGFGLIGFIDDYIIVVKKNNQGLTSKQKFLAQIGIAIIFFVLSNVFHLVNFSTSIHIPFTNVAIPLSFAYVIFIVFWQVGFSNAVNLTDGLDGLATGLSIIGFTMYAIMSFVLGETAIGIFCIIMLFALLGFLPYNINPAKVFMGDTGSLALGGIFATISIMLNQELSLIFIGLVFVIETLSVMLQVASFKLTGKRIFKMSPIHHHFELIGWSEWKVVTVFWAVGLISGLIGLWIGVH

| SMILES | MIC (Enterococcus faecalis 21) [µg/mL] | MIC (Enterococcus faecalis 22) [µg/mL] | MIC (Enterococcus faecalis 24) [µg/mL] | MIC (Enterococcus faecalis 25) [µg/mL] | MIC (Enterococcus faecalis 27) [µg/mL] | MIC (Enterococcus faecium 10) [µg/mL] | MIC (Enterococcus faecium 1) [µg/mL] | MIC (Enterococcus faecium 9) [µg/mL] | MIC [5] [µg/mL] | MIC [6] [µg/mL] | MIC [7] [µg/mL] | MIC [8] [µg/mL] | MIC [9] [µg/mL] | MIC [10] [µg/mL] | also measured |
| --- | --- | --- | --- | --- | --- | --- | --- | --- | --- | --- | --- | --- | --- | --- | --- |
| CCCCCCCCCCCCCCCC(=O)N[C@@H](CCCNC(=N)N)C(=O)Nc1ccc(CN[C@H](C(=O)O)[C@H](O[C@@H]2O[C@H](CN)[C@@H](O)[C@H]2O)[C@H]2O[C@@H](n3ccc(=O)[nH]c3=O)[C@H](O)[C@@H]2O)cc1 [compound 7, analogue 7] | 0.5 (≈ 0.527 µM) | 0.13 (≈ 0.137 µM) | 0.13 (≈ 0.137 µM) | 0.25 (≈ 0.264 µM) | 0.25 (≈ 0.264 µM) | 1 (≈ 1.05 µM) | 1 (≈ 1.05 µM) | 0.25 (≈ 0.264 µM) | 1 (≈ 1.05 µM) | 1 (≈ 1.05 µM) | 2 (≈ 2.11 µM) | 2 (≈ 2.11 µM) | 1 (≈ 1.05 µM) | 1 (≈ 1.05 µM) | IC50 (MraYSA (S. aureus MraY)): 0.0017 µM; CC50 at 24 h (in vitro): 25 µM; MIC ([1]; read-out: 7 MIC): 0.5 µg/mL (≈ 0.527 µM); MIC (E. faecium ATCC 35667; read-out: 7 MIC): 0.5 µg/mL (≈ 0.527 µM); MIC ([2]; read-out: 7 MIC): 0.5 µg/mL (≈ 0.527 µM); MIC ([3]; read-out: 7 MIC): 2 µg/mL (≈ 2.11 µM); MIC (S. aureus ATCC 29213; read-out: 7 MIC): 1 µg/mL (≈ 1.05 µM); MIC ([4]; read-out: 7 MIC): 1 µg/mL (≈ 1.05 µM) |
| C[C@H]1COc2c(N3CCN(C)CC3)c(F)cc3c(=O)c(C(=O)O)cn1c23 [levofloxacin] | 0.5 (≈ 1.38 µM) | 1 (≈ 2.77 µM) | 1 (≈ 2.77 µM) | 0.5 (≈ 1.38 µM) | 1 (≈ 2.77 µM) | > 32 | > 32 | > 32 | > 32 | 0.13 (≈ 0.36 µM) | > 32 | > 32 | > 32 | > 32 | MIC ([1]; read-out: levofloxacin MIC): 1 µg/mL (≈ 2.77 µM); MIC (E. faecium ATCC 35667; read-out: levofloxacin MIC): 4 µg/mL (≈ 11.1 µM); MIC ([2]; read-out: levofloxacin MIC): 16 µg/mL (≈ 44.3 µM); MIC ([3]; read-out: levofloxacin MIC): 4 µg/mL (≈ 11.1 µM); MIC (S. aureus ATCC 29213; read-out: levofloxacin MIC): 0.13 µg/mL (≈ 0.36 µM); MIC ([4]; read-out: levofloxacin MIC): 8 µg/mL (≈ 22.1 µM); MIC [11]: > 32 µg/mL |
| CN[C@H](CC(C)C)C(=O)N[C@H]1C(=O)N[C@@H](CC(N)=O)C(=O)N[C@H]2C(=O)N[C@H]3C(=O)N[C@H](C(=O)N[C@H](C(=O)O)c4cc(O)cc(O)c4-c4cc3ccc4O)[C@H](O)c3ccc(c(Cl)c3)Oc3cc2cc(c3O[C@@H]2O[C@H](CO)[C@@H](O)[C@H](O)[C@H]2O[C@H]2C[C@](C)(N)[C@H](O)[C@H](C)O2)Oc2ccc(cc2Cl)[C@H]1O [vancomycin] | 1 (≈ 0.69 µM) | 1 (≈ 0.69 µM) | 1 (≈ 0.69 µM) | 1 (≈ 0.69 µM) | 1 (≈ 0.69 µM) | 1 (≈ 0.69 µM) | 1 (≈ 0.69 µM) | 1 (≈ 0.69 µM) | 1 (≈ 0.69 µM) | – | 2 (≈ 1.38 µM) | 2 (≈ 1.38 µM) | 1 (≈ 0.69 µM) | 1 (≈ 0.69 µM) | MIC ([1]; read-out: vancomycin MIC): 128 µg/mL (≈ 88.3 µM); MIC (E. faecium ATCC 35667; read-out: vancomycin MIC): 1 µg/mL (≈ 0.69 µM); MIC ([2]; read-out: vancomycin MIC): > 128 µg/mL; MIC ([3]; read-out: vancomycin MIC): 128 µg/mL (≈ 88.3 µM); MIC (S. aureus ATCC 29213; read-out: vancomycin MIC): 1 µg/mL (≈ 0.69 µM); MIC ([4]; read-out: vancomycin MIC): 1 µg/mL (≈ 0.69 µM) |
